The text below walks through data of patent US9249125B2, “Pyrazole derivatives as p38 MAP inhibitors” (RESPIVERT LIMITED, priority 2012, dated 2016).

One data set deals with GSK3α (Homo sapiens (Human), UniProt P49840). In words: GSK 3α enzyme inhibition (FRET, Z-LYTE). Format: biochemical. Summed up:
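GSK3α (500 ng/mL stock) was preincubated 2 hr at RT with compound (4 to 0.004 μg/mL stocks), then FRET peptide (8 μM stock) and ATP (40 μM stock) added for 1 hr. Protease development for 1 hr cleaved unphosphorylated peptide; coumarin/fluorescein emission ratio reported phosphorylation.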

The next data set has as its system RSV A2. Put plainly: RSV induced F-protein expression in primary bronchial epithelial cells. It counts as cell-based, respiratory syncytical virus. The note with it: human respiratory syncytial virus, Primary bronchial epithelial cell, read-out: RSV induced F-protein in HBECs IC50. The protocol: Normal human bronchial epithelial cells (NHBEC) grown in 96 well plates are infected with RSV A2 (Strain A2, HPA, Salisbury, UK) at an MOI of 0.001 in the LHC8 Media:RPMI-1640 (50:50) containing 15 mM magnesium chloride and incubated for 1 hr at 37° C. for adsorption. The cells are then washed with PBS (3×200 μL), fresh media (200 μL) is added and incubation continued for 4 days. Where appropriate, cells are pre-incubated with the compound or DMSO for 2 hr, and then added again after washout of the virus.
The cells are fixed with 4% formaldehyde in PBS solution (50 μL) for 20 min, washed with WB (3×200 μL), (washing buffer, PBS including 0.5% BSA and 0.05% Tween-20) and incubated with blocking solution (5% condensed milk in PBS) for 1 hr. Cells are then washed with WB (3×200 μL) and incubated for 1 hr at RT with anti-RSV (2F7) F-fusion protein antibody (40 μL) (mouse monoclonal, lot 798760, Cat. No. ab43812, Abcam) in 5% BSA in PBS-tween. After washing, cells are incubated with an HRP-conjugated secondary antibody solution (50 μL) in 5% BSA in PBS-Tween (lot 00053170, Cat. No. P0447, Dako) and then TMB substrate (50 μL) (substrate reagent pack, lot 269472, Cat. No. DY999, R&D Systems, Inc.) was added. This reaction is stopped by the addition of 2N H2SO4 (50 μL) and the resultant signal is determined colorimetrically (OD: 450 nm with a reference wavelength of 655 nm) in a microplate reader (Varioskan® Flash, ThermoFisher Scientific).
Cells are then washed and a 2.5% crystal violet solution (50 μL) (lot 8656, Cat. No. PL7000, Pro-Lab Diagnostics) is applied for 30 min. After washing with WB, 1% SDS in distilled water (100 μL) is added to each well, and plates are shaken lightly on the shaker for 1 hr prior to reading the absorbance at 595 nm. The measured OD450-655 readings are corrected to the cell number by dividing the OD450-655 by the OD595 readings. The percentage inhibition for each well is calculated and the IC50 value is calculated from the concentration-response curve generated from the serial dilutions of compound.

In another data set the test system is PBMC cells. In words: Cell mitosis assay. Format: cell-based, human. The protocol: Peripheral blood mononucleocytes (PBMCs) from healthy subjects are separated from whole blood (Quintiles, London, UK) using a density gradient (Histopaque-1077, Sigma-Aldrich, Poole, UK). The PBMCs (3 million cells per sample) are subsequently treated with 2% PHA (Sigma-Aldrich, Poole, UK) for 48 hr, followed by a 20 hr exposure to varying concentrations of test compounds. At 2 hr before collection, PBMCs are treated with demecolcine (0.1 μg/mL) (Invitrogen, Paisley, UK,) to arrest cells in metaphase. To observe mitotic cells, PBMCs are permeabilised and fixed by adding Intraprep (50 μL) (Beckman Coulter, France), and stained with anti-phospho-histone 3 (0.26 ng/L) (#9701; Cell Signalling, Danvers, Mass.) and propidium iodide (1 mg/mL) (Sigma-Aldrich, Poole, UK,) as previously described (Muehlbauer P. A. and Schuler M. J., Mutation Research, 2003, 537:117-130). Fluorescence is observed using an ATTUNE flow cytometer (Invitrogen, Paisley, UK), gating for lymphocytes.

Data set [1] concerns LPS-induced airways neutrophilia in mice. Put plainly: LPS-induced neutrophil accumulation in mice. Format: in vivo. Conditions: Test Substance at 0.2 mg/mL, intra tracheal, dosed 8 hr pre-LPS challenge.

Chain of GSK3α (P49840 whole entry): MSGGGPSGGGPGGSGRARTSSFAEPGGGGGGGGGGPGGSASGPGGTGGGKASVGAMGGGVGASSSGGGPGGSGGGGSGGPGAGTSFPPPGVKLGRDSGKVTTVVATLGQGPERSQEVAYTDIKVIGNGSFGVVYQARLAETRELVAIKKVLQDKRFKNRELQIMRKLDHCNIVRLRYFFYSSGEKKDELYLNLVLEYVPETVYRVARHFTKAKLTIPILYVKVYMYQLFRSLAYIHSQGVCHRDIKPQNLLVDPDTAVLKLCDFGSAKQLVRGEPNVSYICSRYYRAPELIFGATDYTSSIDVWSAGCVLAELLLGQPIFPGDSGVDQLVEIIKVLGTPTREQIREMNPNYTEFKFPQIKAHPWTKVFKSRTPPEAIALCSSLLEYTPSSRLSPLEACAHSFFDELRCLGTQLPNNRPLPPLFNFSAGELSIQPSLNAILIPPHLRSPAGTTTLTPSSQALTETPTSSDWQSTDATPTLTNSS

In turn, `Cc1ccc(-n2nc(C(C)(C)C)cc2NC(=O)Nc2ccc(Oc3ccnc(Nc4ccc5[nH]ncc5c4)n3)c3ccccc23)cc1` [Example 22, 1-(4-((2-((1H-indazol-5-yl)amino)pyrimidin-4-yl)oxy)naphthalen-1-yl)-3-(3-(tert-butyl)-1-(p-tolyl)-1H-pyrazol-5-yl)urea] registered an IC50 against GSK3α above 16000 nM. The half-maximal inhibitory concentration (IC50) in the data set with RSV A2 was 4.6 nM. Further, the “Mitosis Assay % inhibition in PBMC cells at 5 μg/mL” value in the data set with PBMC cells is on record as 52.7%. Besides, in data set [1], the “% Inhibition of neutrophil accumulation in BAL” value is listed as 57% and the “Neutrophil numbers in BAL (+/−SEM)” value is 7.0 ± 1.2 ×10^5/mL.
